Assays:
bacteria = assay: In vitro bacterial kill in the presence of interfering compounds found in poultry ingesta; format: cell-based; conditions: in the presence of potentially interfering compounds of poultry ingesta
Source text: Organic compounds have been evaluated for biocidal efficacy in the upper GI tract of poultry, including D-limonene. […] Organic acids have also found utility as a drinking water biocide for gut bacteria.

Salmonella enteritidis [1] = assay: In vitro reduction of Salmonella enteritidis in the presence of autoclaved broiler feed; format: cell-based; conditions: 1 h, 37° C.
Protocol: Another study was performed to determine the bactericidal effects of the same three peracids investigated in the first study. Eleven tubes were filled with 0.5 g of autoclaved broiler feed to which 100 ul of a Salmonella enteritidis culture broth was added. Two of the tubes were additionally filled with 1.9 ml of distilled water and the remaining nine were filled with an additional 1.7 ml of H2O. The peracids were added to the nine tubes to achieve a 0.0125% of each of the three peracids and two subsequent dilutions to achieve 0.00625% and 0.003125% of each. The samples were incubated at 37° C. and vortexed. After 1 h, the samples were plated and diluted to yield a plate count of 10^4 and 10^3 cfu/ml

Salmonella enteritidis [2] = assay: Reduction of Salmonella in broiler crops, peracid in drinking water during 8 h feed withdrawal (Example 6); format: in vivo; conditions: 8 h exposure, broilers
Protocol: To determine the biocidal effect of perlactic and percitric on Salmonella in the upper GI tract (crops) of broiler chickens, peracid solutions were added to the drinkers such that the concentration of perlactic was 0.006 or 0.003% and percitric was at a 0.03% concentration. The birds were deprived of water for 8 h prior to an 8 h feed withdrawal period and allowed to drink the water for 8 h. Prior to reintroduction of the water with the test compounds, the birds were gavaged with 1 ml of 10^8 Salmonella. After the 8 h test consumption, the birds were terminated, the crops removed aseptically, stomached for 30 seconds, diluted and plated onto BGA with NO/NA.

[3] = cited from earlier work
Salmonella enteritidis [4] = assay: Reduction of Salmonella in crops of SE challenged broilers, perlactic acid vs lactic acid and hydrogen peroxide (Example 8); format: in vivo; conditions: 30 ppm in drinking water for 8 hours
Protocol: In the final broiler study, forty-five 8-week old broilers were divided up into 3 groups with […]. Upon feed withdrawal, all birds were gavaged with 1 ml of a 1×10^8 challenge of Salmonella enteritidis. At this time, all feed was removed and the drinking water treatments administered. […] All groups received the same withdrawal time of 8 hours. At the time of kill, the crops were aseptically collected after cervical dislocation. The crops were added to […] bags containing 10 ml of PBS. The bags were stomached for 30 sec where upon 250 μl were removed and added to 2.25 ml of PBS. […] Groups 2 and 3 were directly plated from the […] bags by taking 100 μl from the bag and spread plating it onto BGA plates. These plates were incubated for 24 hrs at 37° C. The plates were counted for CFUs and log 10 reductions. After the bags had been used for dilution purposes, 9.0 ml of tetrathionate broth was added for enrichment purposes. These bags were incubated along with the plates. 24 hours later, 1 loopful of the bag contents were streaked onto BGA plates for +/- observations.

Salmonella enteritidis [5] = assay: Reduction of Salmonella in broiler crops under different consumption pressures (Example 7); format: in vivo; conditions: 0.003125% (30 ppm) in drinking water
Protocol: Another experiment was designed to further characterize the disinfection effect of perlactic acids when different consumption pressures were placed on 8 week-old broilers. All of the birds had the feed removed 8 hours prior to slaughter. Perlactic acid was added at 0.003125% (30 ppm) to the drinking water for the last 8 hours of the study (feed withdrawal period). The first treatment group had water removed 8 hours prior to the 8 h feed withdrawal (PL 8-8-8) and the second treatment group had only feed withdrawal/perlactic treatment (PL 8—8). The last group had access to the peracid in their drinking water 12 hours prior to slaughter and the feed taken up 4 hours after that yielding a final feed withdrawal time of 8 h (PL 12-8). At the conclusion of the study, the crops were processed microbiologically similar to the methods described for FIG. 3.

[6] = system: bacteria in the crops of market-age broilers; assay: Biocidal effect of a drinking water oxidant in the crops of market-age broilers; format: in vivo; conditions: dissolved in drinking water
Protocol: A variety of chemicals have been evaluated for efficacy as a drinking water-based biocide for administration to birds during the period of feed withdrawal. […] It was found, however, that the biocidal effect of this dissolved, short-lived oxidant was minimal in the crops of market-age broilers. This ineffectiveness is thought to be due primarily to the high ozone demand of the ingesta itself, which consumes the majority of the ozone and subsequently prevents delivery of sufficient ozone to the bacteria surfaces.

[7] = in water, alcohol, ether, and sulfuric acid; cited from earlier work
[8] = highest concentration (0.0125%)
[9] = all concentrations (0.0125%, 0.00625%, 0.003125%)

## CC(=O)O [acetic acid]
bacteria
  in vitro antibacterial effect: excellent in vitro antibacterial capability

## percitric acid
Salmonella enteritidis [1]; diluted samples (0.00625%, 0.003125%)
  biocidal effect on Salmonella enteritidis: not as efficient
Salmonella enteritidis [1]; [8]
  biocidal effect on Salmonella enteritidis: significant biocidal effects
Salmonella enteritidis [2]; 0.03% in drinking water
  reduction of Salmonella in the crop: multiple log reduction

## OO [HP, hydrogen peroxide, reference compound]
[3]; 30 to 90% solution
  loss of active ingredients: less than 1 % per year

## C=C(C)[C@H]1CC=C(C)CC1 [D-limonene]
bacteria
  in vitro antibacterial effect: excellent bacterial kills

## CC(O)C(=O)OO (centres unmarked) [perlactic acid]
Salmonella enteritidis [4]
  reduction in Salmonella in the crop as compared to the control: 2.71 Log10
Salmonella enteritidis [1]; [9]
  biocidal effect on Salmonella enteritidis: showed a disinfection efficacy at all concentrations
Salmonella enteritidis [1]; [8]
  biocidal effect on Salmonella enteritidis: eliminated the Salmonella to levels that fell below the detection limit of this assay
Salmonella enteritidis [5]; same concentrate used 1 week later
  effectiveness in reducing Salmonella in crops compared to FIG. 3: diminished
Salmonella enteritidis [5]; PL 8-8-8, PL 8-8, PL 12-8
  influence of increased exposure time or water deprivation prior to feed withdrawal on biocidal effect: does not increase the biocidal effect
Salmonella enteritidis [2]; 0.003% in drinking water
  log reduction of Salmonella in the crop: two
Salmonella enteritidis [2]; 0.006 or 0.003% in drinking water
  reduction of Salmonella in the crop: multiple log reduction

## O=[O+][O-] [Ozone]
[6]
  biocidal effect in the crops: minimal

## CC(=O)OO [peracetic acid]
[7]
  solubility: freely soluble
Salmonella enteritidis [1]; [9]
  biocidal effect on Salmonella enteritidis: poor biocide
[3]; 1% solution
  time to lose half its strength through hydrolysis: 6 days

— patent US6518307B2, “Control of microbial populations in the gastrointestinal tract of animals” (Lynntech, Inc., priority 2000, dated 2003)
